Data: patent publication US8835428B2, “Diacylglycerol acyltransferase inhibitors” (Piramal Enterprises Limited, priority 2008, dated 2014)

biological target: T1, hDGAT1 (Homo sapiens, UniProt O75907); assay: In-vitro DGAT1 assay (hDGAT1 microsomes from Sf9 cells, 14C oleoyl CoA, triglyceride formation); assay type: biochemical; settings: At 1 μM
T1 construct: host or cells: Sf9 insect cells (baculovirus); microsomal preparation
T1 sequence (O75907 1-488): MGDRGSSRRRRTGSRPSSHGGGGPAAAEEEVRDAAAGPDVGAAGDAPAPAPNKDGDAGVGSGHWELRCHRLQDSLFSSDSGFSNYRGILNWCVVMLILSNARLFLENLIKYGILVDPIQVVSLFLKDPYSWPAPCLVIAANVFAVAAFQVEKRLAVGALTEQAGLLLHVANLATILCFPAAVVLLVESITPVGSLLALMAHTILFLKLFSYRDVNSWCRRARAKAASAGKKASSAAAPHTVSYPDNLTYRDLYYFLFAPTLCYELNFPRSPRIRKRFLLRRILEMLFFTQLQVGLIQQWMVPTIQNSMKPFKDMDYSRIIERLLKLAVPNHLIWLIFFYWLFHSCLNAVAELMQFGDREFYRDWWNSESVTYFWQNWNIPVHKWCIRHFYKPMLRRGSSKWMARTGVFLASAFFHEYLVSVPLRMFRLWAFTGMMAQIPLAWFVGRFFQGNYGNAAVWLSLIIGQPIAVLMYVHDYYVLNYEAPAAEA
Method in brief: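 Human DGAT1 in baculovirus-infected Sf9 microsomes (2.5–10 μg), [14C]oleoyl-CoA with 409.5, 1228.5 or 1638 μM 1,2-dioleoyl-sn-glycerol, Tris-HCl pH 7.4 buffer with BSA. Compounds screened at 10, 5 and 1 μM in duplicate. Reaction 10 min at 37 °C; heptane-extracted [14C]triglyceride counted by scintillation.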

Inhibition at 1 µM, 0 to 50%:
COC(=O)[C@H](NC(=O)c1cc(-c2ccc(NS(=O)(=O)c3c(F)cccc3F)cc2)no1)C(C)C [Example 316, (R)-Methyl 2-(3-(4-(2,6-difluorophenylsulfonamido)phenyl)isoxazole-5-carboxamido)-3-methylbutanoate]
CC(C)[C@@H](NC(=O)c1cc(-c2ccc(NS(=O)(=O)c3c(F)cccc3F)cc2)no1)C(=O)O [Example 317, (R)-2-(3-(4-(2,6-Difluorophenylsulfonamido)phenyl)isoxazole-5-carboxamido)-3-methylbutanoic acid]
COC(=O)[C@H](NC(=O)c1cc(-c2ccc(NS(=O)(=O)c3ccc(C(F)(F)F)cc3)cc2)no1)C(C)C [Example 318, (R)-methyl 3-methyl-2-(3-(4-(4-(trifluoromethyl)phenylsulfonamido)phenyl)isoxazole-5-carboxamido)butanoate]
CC(C)[C@@H](NC(=O)c1cc(-c2ccc(NS(=O)(=O)c3ccc(C(F)(F)F)cc3)cc2)no1)C(=O)O [Example 319, (R)-3-methyl-2-(3-(4-(4-(trifluoromethyl)phenylsulfonamido)phenyl)isoxazole-5-carboxamido)butanoic acid]
CC(C)[C@@H](NC(=O)c1cc(-c2ccc(NS(=O)(=O)c3cc(F)cc(F)c3)cc2)no1)C(=O)O [Example 320, (R)-2-(3-(4-(3,5-Difluorophenylsulfonamido)phenyl)isoxazole-5-carboxamido)-3-methylbutanoic acid]
CC(C)C(NC(=O)c1cc(-c2ccc(OCc3ccccc3)cc2)no1)C(=O)O (stereo not shown) [Example 322, 2-(3-(4-(Benzyloxy)phenyl)isoxazole-5-carboxamido)-3-methylbutanoic acid]
CC(C)C(NC(=O)c1cc(-c2ccc(OCc3cccc(C(F)(F)F)c3)cc2)no1)C(=O)O (stereo not shown) [Example 326, 3-Methyl-2-(3-(4-(3-(trifluoromethyl)benzyloxy)phenyl)isoxazole-5-carboxamido)butanoic acid]
COC(=O)C(NC(=O)c1cc(-c2ccc(OCc3ccccc3C(F)(F)F)cc2)no1)C(C)C (stereo not shown) [Example 329, Methyl 3-methyl-2-(3-(4-(2-(trifluoromethyl)benzyloxy)phenyl)isoxazole-5-carboxamido)butanoate]
CC(C)C(NC(=O)c1cc(-c2ccc(OCc3ccccc3C(F)(F)F)cc2)no1)C(=O)O (stereo not shown) [Example 330, 3-Methyl-2-(3-(4-(2-(trifluoromethyl)benzyloxy)phenyl)isoxazole-5-carboxamido)butanoic acid]
CC(C)C(NC(=O)c1cc(-c2ccc(Oc3nc4ccc(F)cc4s3)cc2)no1)C(=O)O (stereo not shown) [Example 335, 2-(3-(4-(6-fluorobenzo[d]thiazol-2-yloxy)phenyl)isoxazole-5-carboxamido)-3-methylbutanoic acid]
CC(C)C(NC(=O)c1cc(-c2ccc(NC(=O)C(=O)Nc3cccc(C(F)(F)F)c3)cc2)no1)C(=O)O (stereo not shown) [Example 337, 3-Methyl-2-(3-(4-(2-oxo-2-(3-(trifluoromethyl)phenylamino)acetamido)phenyl)isoxazole-5-carboxamido)butanoic acid]
CC(C)C(NC(=O)c1cc(-c2ccc(NC(=O)C(=O)Nc3ccc(F)cc3F)cc2)no1)C(=O)O (stereo not shown) [Example 339, 2-(3-(4-(2-(2,4-difluorophenylamino)-2-oxoacetamido)phenyl)isoxazole-5-carboxamido)-3-methylbutanoic acid]
CC(C)C(NC(=O)c1cc(-c2ccc(NC(=O)[C@H](O)c3ccccc3)cc2)no1)C(=O)O (stereo partly drawn) [Example 341, 2-(3-(4-((R)-2-hydroxy-2-phenylacetamido)phenyl)isoxazole-5-carboxamido)-3-methylbutanoic acid]
CC(C)[C@H](NC(=O)c1csc(-c2ccc(NC(=O)Nc3ccc(F)cc3F)cc2)n1)C(=O)O [Example 359, (S)-2-(2-(4-(3-(2,4-difluorophenyl)ureido)phenyl)thiazole-4-carboxamido)-3-methylbutanoic acid]
CC(C)[C@H](NC(=O)c1csc(-c2ccc(NC(=O)Nc3ccc4c(c3)CCC4)cc2)n1)C(=O)O [Example 361, (S)-2-(2-(4-(3-(2,3-dihydro-1H-inden-5-yl)ureido)phenyl)thiazole-4-carboxamido)-3-methylbutanoic acid]

% inhibition of hDGAT1, + (>0% Inhibition ≦50):
CC(C)C(NC(=O)c1cc(-c2ccc(OCc3ccc(F)cc3F)cc2)no1)C(=O)O (stereo not shown) [Example 332]

same assay, conditions: At 5 μM

Inhibition at 5 µM, 50 to 75%:
CC(C)[C@H](NC(=O)c1nc(-c2ccc(NC(=O)Nc3ccc(F)cc3)cc2)no1)C(=O)O [Example 343, (S)-2-(3-(4-(3-(4-Fluorophenyl)ureido)phenyl)-1,2,4-oxadiazole-5-carboxamido)-3-methylbutanoic acid]
COc1ccc(NC(=O)Nc2ccc(-c3noc(C(=O)N[C@H](C(=O)O)C(C)C)n3)cc2)cc1 [Example 345, (S)-2-(3-(4-(3-(4-methoxyphenyl)ureido)phenyl)-1,2,4-oxadiazole-5-carboxamido)-3-methylbutanoic acid]
COC(=O)[C@@H](NC(=O)c1nc(-c2ccc(NC(=O)Nc3ccc(C)cc3)cc2)no1)C(C)C [Example 346, (S)-Methyl 3-methyl-2-(3-(4-(3-p-tolylureido)phenyl)-1,2,4-oxadiazole-5-carboxamido)butanoate]
Cc1ccc(NC(=O)Nc2ccc(-c3noc(C(=O)N[C@H](C(=O)O)C(C)C)n3)cc2)cc1 [Example 347, (S)-3-Methyl-2-(3-(4-(3-p-tolylureido)phenyl)-1,2,4-oxadiazole-5-carboxamido)butanoic acid]
CC(C)[C@H](NC(=O)c1nc(-c2ccc(NC(=O)Nc3ccccc3F)cc2)no1)C(=O)O [Example 349, (S)-2-(3-(4-(3-(2-Fluorophenyl)ureido)phenyl)-1,2,4-oxadiazole-5-carboxamido)-3-methylbutanoic acid]
COC(=O)[C@@H](NC(=O)c1nc(-c2ccc(NC(=S)Nc3ccccc3F)cc2)no1)C(C)C [Example 355, (S)-methyl 2-(3-(4-(3-(2-fluorophenyl)thioureido)phenyl)-1,2,4-oxadiazole-5-carboxamido)-3-methylbutanoate]
COC(=O)[C@@H](NC(=O)c1nc(-c2ccc(NC(=S)NCc3ccccc3)cc2)no1)C(C)C [Example 356, (S)-methyl 2-(3-(4-(3-benzylthioureido)phenyl)-1,2,4-oxadiazole-5-carboxamido)-3-methylbutanoate]

Inhibition at 5 µM, 0 to 50%:
COC(=O)[C@@H](NC(=O)c1nc(-c2ccc(NC(=O)Nc3ccc(OC)cc3)cc2)no1)C(C)C [Example 344, (S)-Methyl 2-(3-(4-(3-(4-methoxyphenyl)ureido)phenyl)-1,2,4-oxadiazole-5-carboxamido)-3-methylbutanoate]
COC(=O)[C@@H](NC(=O)c1nc(-c2ccc(NC(=O)Nc3ccccc3F)cc2)no1)C(C)C [Example 348, (S)-methyl 2-(3-(4-(3-(2-fluorophenyl)ureido)phenyl)-1,2,4-oxadiazole-5-carboxamido)-3-methylbutanoate]
COC(=O)[C@@H](NC(=O)c1nc(-c2ccc(NS(=O)(=O)c3ccc(F)cc3F)cc2)no1)C(C)C [Example 350, (S)-methyl 2-(3-(4-(2,4-difluorophenylsulfonamido)phenyl)-1,2,4-oxadiazole-5-carboxamido)-3-methylbutanoate]
COC(=O)[C@@H](NC(=O)c1nc(-c2ccc(NC(=O)Nc3ccccc3)cc2)no1)C(C)C [Example 351, (S)-Methyl 3-methyl-2-(3-(4-(3-phenylureido)phenyl)-1,2,4-oxadiazole-5-carboxamido)butanoate]
COC(=O)[C@@H](NC(=O)c1nc(-c2ccc(NC(=O)NCc3ccccc3)cc2)no1)C(C)C [Example 352, (S)-methyl 2-(3-(4-(3-benzylureido)phenyl)-1,2,4-oxadiazole-5-carboxamido)-3-methylbutanoate]
COC(=O)[C@@H](NC(=O)c1nc(-c2ccc(NC(=S)Nc3cccc(F)c3)cc2)no1)C(C)C [Example 353, (S)-Methyl 2-(3-(4-(3-(3-fluorophenyl)thioureido)phenyl)-1,2,4-oxadiazole-5-carboxamido)-3-methylbutanoate]
COC(=O)[C@@H](NC(=O)c1nc(-c2ccc(NC(=S)Nc3ccc(F)cc3)cc2)no1)C(C)C [Example 354, (S)-Methyl 2-(3-(4-(3-(4-fluorophenyl)thioureido)phenyl)-1,2,4-oxadiazole-5-carboxamido)-3-methylbutanoate]
COC(=O)[C@@H](NC(=O)c1nc(-c2ccc(NC(=S)Nc3ccccc3)cc2)no1)C(C)C [Example 357, (S)-methyl 3-methyl-2-(3-(4-(3-phenylthioureido)phenyl)-1,2,4-oxadiazole-5-carboxamido)butanoate]
